Experimental findings from patent publication US20250115596A1, “ESTERS OF 8-METHYL-8-AZABICYCLO[3.2.1] OCTAN-3-YL 3-HYDROXY-2-PHENYLPROPANOATE” (ADS Therapeutics LLC, priority 2022, published 2025) are described below.

In brackets after ≈: the same amount, converted by molar mass. Counter-ions that a name gives are not always drawn.

One series concerns Dutch Belted rabbits. In words: In vivo pharmacology study: pupil size after topical ocular instillation of eye drop formulation. As to conditions: for pupil size change from baseline: female Dutch Belted rabbits; for retention of pupil dilation during the measurement period: measured up to 24 hour after dosing. The method, then: The test compound was administered to each animal by topical ocular instillation of 40 μL of eye drop formulation just once at day 1. The pupil size of both eyes of all animals were measured at baseline (30 minutes before dosing), 0.5 hour, 1 hour, 2 hour, 4 hour, 6 hour, 8 hour, 12 hour, and 24 hour after dosing. Pupil sizes were measured in both eyes of all animals on 3 separate days during acclimation prior to dosing initiation. Set the light intensity in the procedure room so that the animal's pupil size was about 6-7 mm. Light intensity of the procedure room for pupil size measurement should be maintained constant throughout the pupil size measurement procedures in the study. Pupil size change from baseline was calculated for each eye of each individual animal separately for each postdose timepoint. Mean and standard error of pupil size change from baseline were calculated for each group per postdose timepoint and plotted mean of pupil change from baseline against timepoint comparisons.

Another series can be described thus: physchem. As to conditions: organic solvent or mixture, thermodynamic from solid.
The mark [1] stands for this setting: 0.4% formulation in F6H8, single 40 μL eye drop.

For `CCCCC/C=C\C/C=C\CCCCCCCC(=O)OCC(C(=O)O[C@H]1C[C@H]2CC[C@@H](C1)N2C)c1ccccc1` (stereo partly drawn) [Compound 2, 3-(((1R,3r,5S)-8-methyl-8-azabicyclo[3.2.1]octan-3-yl)oxy)-3-oxo-2-phenylpropyl (9Z,12Z)-octadeca-9,12-dienoate], in the series with Dutch Belted rabbits (setting [1]), the “pupil size change from baseline” value was “over 10%” and the “retention of pupil dilation during the measurement period” value is on record as “remained significantly dilated from baseline during the measurement period”. Moreover, the solubility (as a rule, how much of the substance goes into solution per volume) at 30 min in “physchem” was 3870 µg/mL (≈ 7.01 mM).
With `CCCCCCCCCCCCCCCCCC(=O)O[C@H]1CC[C@@]2(C)C(=CC[C@H]3[C@@H]4CC[C@H]([C@H](C)CCCC(C)C)[C@@]4(C)CC[C@@H]32)C1` [cholesteryl stearate, reference compound], the solubility at 30 min in the series “physchem” was 26.2 µg/mL (≈ 0.0402 mM).
Consider `CN1[C@@H]2CC[C@H]1C[C@@H](OC(=O)C(CO)c1ccccc1)C2` (some centres unmarked) [atropine sulfate monohydrate, reference compound], for which the “pupil size change from baseline” value in the series with Dutch Belted rabbits (0.01% in normal saline, single 40 μL eye drop, 1 hour or 2 hour post-dose) is reported as “about 5%”.
On to `CC(C)CCC[C@@H](C)[C@H]1CC[C@H]2[C@@H]3CC=C4C[C@@H](O)CC[C@]4(C)[C@H]3CC[C@]12C` [cholesterol, reference compound], for which the solubility at 30 min in the series “physchem” (perfluorohexyloctane (F6H8)) amounted to 79.7 µg/mL (≈ 0.206 mM).
Take `CCCCCCCC/C=C\CCCCCCCC(=O)OCC(C(=O)O[C@H]1C[C@H]2CC[C@@H](C1)N2C)c1ccccc1` (stereo partly drawn) [Compound 1, 3-(((1R,3r,5S)-8-methyl-8-azabicyclo[3.2.1]octan-3-yl)oxy)-3-oxo-2-phenylpropyl (9Z)-octadec-9-enoate]: in the series with Dutch Belted rabbits (setting [1]), the “pupil size change from baseline” value is given as “comparable pupil size dilation as the 0.01% atropine sulfate monohydrate” and the “retention of pupil dilation during the measurement period” value is on record as “retained the pupil dilation throughout the measurement period”. The solubility at 30 min in “physchem” worked out at 5000 µg/mL (≈ 9.03 mM).
Take `CCCCCC=CCCC(=O)OCC(C(=O)O[C@H]1C[C@H]2CC[C@@H](C1)N2C)c1ccccc1` (some centres unmarked) [Compound 13, atropine dec-4-enoate]: the solubility at 30 min in “physchem” was found to be 4900 µg/mL (≈ 11.1 mM).
On to `CCCCCCCCCCCCCCCC(=O)OCC(C(=O)O[C@H]1C[C@H]2CC[C@@H](C1)N2C)c1ccccc1` (some centres unmarked) [Compound 7, atropine palmitate], for which the solubility at 30 min in the series “physchem” amounted to 5610 µg/mL (≈ 10.6 mM).
